Read-outs that look alike come from different tables or passages of the source. One block for each compound: values may come before it.
Columns and labels:
[1] = tested on: KMS-11 human Multiple Myeloma cancer cells; assay: Cell proliferation assay (CellTiter-Glo) in KMS-11; format: cell-based; conditions: for IC50: Homo sapiens
Method: (§1) Celt Proliferation Assay: Cell viability was determined by measuring cellular ATP content using the CellTiter-Glo® Luminescent Cell Viability Assay (Promega #G7573) according to manufacturer's protocol. Briefly, 1500-50000 cells were plated on either 384 or 96 well plates in 30 μl (384 well) or 100 μl (96 well) growth media, cells were: allowed to attach overnight and followed by 72 hrs of incubation with various concentration of drugs or drug combinations (10 μl per well in 384 well plates), at the end of the drug treatment, 30 μl of the CellTiter-Glo regent were added to each well (384 well plates) to lyse the cell, and luminescence signals were recorded on a Envision plate reader.
(§2) Method for calculating the effect of the Combination: To evaluate the everolimus and Compound A combination effect in a non-bias way and to identify synergistic effect at all possible concentrations, the combination studies were conducted with a “dose matrix”, where a combination is tested in all possible permutations of serially-diluted everolimus and Compound A single agent doses, in all combination assays, compounds were applied simultaneously. Single agent dose responding curves, IC50, IC90, and the Synergy are all analyzed using Chalice software (CombinatoRx, Cambridge, Mass.). Synergy was calculated by comparing a combination's response to those of its single agents, against the drug-with-itself dose-additive reference model. Deviations from dose additivity can be assessed visually on an Isobologram or numerically With a Combination Index. Excess inhibition compare to additivity can also be plotted as a full dose-matrix chart to capture where the synergies occur. To quantify the overall strength of combination effects, a volume score VHSA=ΣXYInfXInfY(Idata−IHSA) is also calculated between the data and the highest-single-agent surface, normalized for single agent dilution factors fX,fY[ref].
The cells were plated, at 50000 cells/well in 96 well plates in triplicates, and treated with compound for 72 hrs prior to the measurement (FIG. 11). The following “dose matrix”, everolimus; 8 dose, 3×, 500 nM to 0.23 nM, Compound A: 8 dose, 2×, 1 μM to 8 nM, was applied.

[2] = tested on: MFE296 human endometrial cancer cells; assay: Cell proliferation assay (CellTiter-Glo) in MFE296; format: cell-based; conditions: for Amax: single agent
Method: as §1, §2
The experiment setup is identical to the p4EBP1 assay as described above for the MFE296 cancer cell model. (FIG. 8). And the same “dose matrix” (everolimus: 11 dose, 4', 500 nM to 0.5 pM, Compound A; 9 dose, 4×, 1 μM to 16 nM) was applied.

[3] = tested on: p4EBP1 T37/46 in MFE296 cells; assay: High content p4EBP1 T37/46 assay in MFE296 cells; format: cell-based, human; conditions: for IC50 / IC90: Homo sapiens, MFE-296
Method: (§3) Automated imaging assay (or High-Content assay) for pS6 S240/244 and p4EBP1 T37/46: 2-4×10^3 cells were seeded in clear-bottom 384-well black plates (Greiner #781091) in 30 μl per well growth media 24 hours prior to treatment Compounds were added to the cell in 10 μl growth media and incubated overnight; the cells were then fixed by addition of 10 μl per well Mirsky's fixative (National Diagnostics #HS-102) for 1 hour, washed seven times with 30 μl/well TBS buffer using a BioTek plate washer, and blocked with 100 μl/well blocking buffer (TBS with 0.1% BSA and 0.1% Triton X-100). The anti-Ser 240/244 -RPS6 antibody (CST #4838, 1:150 dilution) or anti-Thr 37/46-p4EBP1 antibody (CST #2855, 1:150 dilution) were then incubated overnight at 4° C. After seven times wash with TBS, the cells were stained with Cy5-conjugated goat-anti-rabbit IgG 2nd antibody (Millipore #AP187S, 1:150 dilution) and DNA staining dye Neediest 33342 for 1.5 hours. The phospho-S6 and phospho-4EBP1 signals were-imaged using InCell 1000 Analyzer (BN_staining—10×protocol) at 10× magnification, 3 fields per well after seven times wash with TBS. For Hoechst 33342 signal; the excitation and emission wave lengths are 360 nm (D360—40× filter) and […] (HQ460—40M filter), respectively, and for Cy5, 620 nm (HQ620—60× filter) for both the excitation and emission wave lengths. Analysis of the images was done using the InCell Investigator software.
as §2
p4EBP1 signal. […] The cells were plated at 4000 cells/well in 384 well plates in duplicates, and treated with compound for 18 hrs before the measurement (FIG. 7).

[4] = tested on: pS6 S240/244 in NCI-H23 cells; assay: High content pS6 S240/244 assay in NCI-H23 cells; format: cell-based; conditions: Homo sapiens, single agent, NCI-H23, 18 hrs; for IC50: read-out: IC50, inhibition of pS6 signal; for IC90: read-out: IC90, inhibition of pS6 signal
Method: as §3, §2
The experiment setup is identical to the p4EBP1 assay used for the NCI-H23 cell model (FIGS. 3-4). […]

[5] = tested on: SK-BR3 Human Breast Cancer cells; assay: Cell proliferation assay (CellTiter-Glo) in SK-BR3; format: cell-based; conditions: for IC50: Homo sapiens, SK-BR-3
Method: as §1
The cells were plated at 2000 cells/well in 96 well plates in triplicates, and treated with compound for 72 hrs prior to the measurement. The following dose matrix, everolimus: 8 dose, 2×, […] to 15 nM, Compound A: 8 dose, 2×, 2 μM to 15 nM, was applied.

[6] = tested on: MDA-MB-361 Human Breast Cancer cells; assay: Cell proliferation assay (CellTiter-Glo) in MDA-MB-361; format: cell-based; conditions: for IC50: Homo sapiens
Method: as §1
The cells were plated at 2000 cells/well in […] in triplicates, and treated with compound for 72 hrs prior to the measurement. The following “dose matrix”, everolimus: 8 dose, 2×, 2000 nM to 15 nM, Compound A: 8 dose, 2×, 2 μM to 15 nM, was applied.

[7] = single agent, SK-BR3, 72 hrs, read-out: IC50, inhibition of cell growth
[8] = single agent, MDA-MB-361, 72 hrs

IC50 ([1]; concomitant everolimus, KMS-11, read-out: IC50 for Compound A, cell growth): 16 nM
IC50 ([1]; single agent, KMS-11, 72 hrs, read-out: IC50, inhibition of cell growth): ~80 nM
IC50 ([2]; Homo sapiens, MFE-296, single agent, read-out: IC50, inhibition of cell growth): 78 nM
IC50 ([3]; in presence of trace amount of everolimus, MFE296, read-out: IC50 for Compound A, p4EBP1 signal): 0.24 nM
IC90 ([3]; in presence of trace amount of everolimus, MFE296, read-out: IC90 for Compound A, p4EBP1 signal): 4 nM
IC50 ([3]; single agent, MFE296, 18 hrs, read-out: IC50, reduction of p4EBP1 signal): 16 nM
IC90 ([3]; single agent, MFE296, 18 hrs, read-out: IC90, reduction of p4EBP1 signal): ~100 nM
IC50 [4]: 5 nM
IC90 [4]: ~20 nM
IC50 ([5]; concomitant everolimus, SK-BR3, read-out: IC50 for Compound A, cell growth): < 15 nM
IC50 [5, 7]: ~31 nM
IC50 ([6]; concomitant everolimus, MDA-MB-361, read-out: IC50 for Compound A, cell growth): < 15 nM
IC50 ([6]; single agent, MDA-MB-361, 72 hrs, read-out: IC50, inhibition of cell growth): ~60 nM
Structure (SMILES): Cn1c(=O)n(-c2ccc(C(C)(C)C#N)cc2)c2c3cc(-c4cnc5ccccc5c4)ccc3ncc21 [Compound A, 2-methyl-2-[4-(3-methyl-2-oxo-8-quinolin-3-yl-2,3-dihydro-imidazo[4,5-c]quinolin-1-yl)-phenyl]-propionitrile]
full effective dose amount of Compound A ([1]; Compound A alone, KMS-11): > 125 nM
Amax ([1]; single agent, KMS-11, 72 hrs): 0.7
full effective dose amount of Compound A ([1]; with trace amount (sub-nanomolar) of everolimus, KMS-11): 16 to 82 nM
full effective dose of Compound A ([2]; Compound A alone): 250 nM
Amax [2]: 0.79
full effective dose of Compound A ([2]; with trace amount (picomolar) of everolimus): close to sub-nanomolar range
full effective dose range of Compound A ([5]; Compound A alone, SK-BR3): 120 nM
Amax ([5]; single agent, SK-BR3, 72 hrs): 0.67
full effective dose range of Compound A ([5]; with low dose everolimus, SK-BR3): < 15 nM
full effective dose range of Compound A ([6]; Compound A alone, MDA-MB-361): 120 nM
Amax [6, 8]: 0.81
full effective dose range of Compound A ([6]; with low dose everolimus, MDA-MB-361): < 15 nM

IC50 [4]: < 5 nM
IC90 [4]: ~10 nM
IC50 [5, 7]: < 15 nM
Structure (SMILES): CO[C@H]1C[C@@H]2CC[C@@H](C)[C@@](O)(O2)C(=O)C(=O)N2CCCC[C@H]2C(=O)O[C@H]([C@H](C)C[C@@H]2CC[C@@H](OCCO)[C@H](OC)C2)CC(=O)[C@H](C)/C=C(\C)[C@@H](O)[C@@H](OC)C(=O)[C@H](C)C[C@H](C)/C=C/C=C/C=C/1C [everolimus, 40-O-(2-hydroxyethyl)-rapamycin, reference compound]
Amax ([1]; single agent, KMS-11, 72 hrs): 0.28
Amax [2]: 0.6
p4EBP1 signal reduction ([3]; single agent, all concentrations tested 0.5 pM-500 nM, MFE296): approximately 20%
Amax ([5]; single agent, SK-BR3, 72 hrs): 0.50
Amax [6, 8]: < 0.50

From patent US20130178479A1, “PHARMACEUTICAL COMBINATIONS” (NOVARTIS AG, priority 2010, published 2013)
